From patent US9096591B2, “Tetracyclic compounds” (Medivation Technologies, Inc., priority 2007, dated 2015)

Tests used:
[1] = target: T1, human recombinant dopamine D2L receptor (Homo sapiens, UniProt P14416); assay: Dopamine D2L antagonist activity ([35S]GTPγS binding, SPA); format: biochemical; settings: for Antagonist Activity As Measured by % Inhibition D2L / inhibition at 0.03 µM / inhibition at 0.1 µM / inhibition at 0.3 µM: two values = assay run twice; for inhibition at 0.03 µM / inhibition at 0.1 µM / inhibition at 0.3 µM / inhibition at 1 µM / inhibition at 3 µM: read-out: Antagonist Activity As Measured by % Inhibition D2L
T1 construct: expressed in transfected cells; host or cells: CHO cells
T1 sequence (P14416 whole entry): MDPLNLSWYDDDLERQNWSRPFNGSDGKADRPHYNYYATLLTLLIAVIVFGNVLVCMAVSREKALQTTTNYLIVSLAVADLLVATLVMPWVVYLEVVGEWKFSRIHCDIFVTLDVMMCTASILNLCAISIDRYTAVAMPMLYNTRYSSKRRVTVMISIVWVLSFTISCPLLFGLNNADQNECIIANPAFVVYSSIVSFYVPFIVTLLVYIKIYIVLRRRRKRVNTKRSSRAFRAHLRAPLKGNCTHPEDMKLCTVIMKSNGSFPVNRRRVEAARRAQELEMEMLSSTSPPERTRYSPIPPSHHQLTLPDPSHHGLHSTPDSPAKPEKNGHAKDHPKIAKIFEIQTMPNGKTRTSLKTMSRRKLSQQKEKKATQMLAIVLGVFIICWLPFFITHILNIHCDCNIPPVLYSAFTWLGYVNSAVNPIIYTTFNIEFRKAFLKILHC
Method: To determine for agonist or antagonist activity of compounds of the invention in functional assays, human recombinant dopamine D2L receptor stably expressed in Chinese hamster ovary (CHO) cells (Senogles S E et al. J Biol Chem. 265(8): 4507, 1990) was used. Compounds of invention were pre-incubated with the membranes (0.1 mg/ml) and […] in modified HEPES buffer (20 mM HEPES, pH 7.4, 100 mM NaCl, 10 mM MgCl2, 1 mM DTT, 1 mM EDTA) for 20 minutes and Scintillation Proximity Assay (SPA) beads were added for another 60 minutes at 30° C. The reaction was initiated by 0.3 nM [^35S]GTPγS for an additional 15 minute incubation period. […] Compounds were screened at 3 μM or lower, using 0.4% DMSO as vehicle. Assay results are presented as the percent response of specific binding in Table 8.

[2] = target: human recombinant dopamine D2S receptor (Homo sapiens, UniProt P14416); assay: Dopamine D2S antagonist activity ([35S]GTPγS binding, SPA); format: biochemical; settings: for Antagonist Activity As Measured by % Inhibition D2S / inhibition at 0.03 µM / inhibition at 0.1 µM / inhibition at 0.3 µM: two values = assay run twice; for inhibition at 0.03 µM / inhibition at 0.1 µM / inhibition at 0.3 µM / inhibition at 1 µM / inhibition at 3 µM: read-out: Antagonist Activity As Measured by % Inhibition D2S
human recombinant dopamine D2S receptor, sequence (P14416 1-414 isoform P14416-2): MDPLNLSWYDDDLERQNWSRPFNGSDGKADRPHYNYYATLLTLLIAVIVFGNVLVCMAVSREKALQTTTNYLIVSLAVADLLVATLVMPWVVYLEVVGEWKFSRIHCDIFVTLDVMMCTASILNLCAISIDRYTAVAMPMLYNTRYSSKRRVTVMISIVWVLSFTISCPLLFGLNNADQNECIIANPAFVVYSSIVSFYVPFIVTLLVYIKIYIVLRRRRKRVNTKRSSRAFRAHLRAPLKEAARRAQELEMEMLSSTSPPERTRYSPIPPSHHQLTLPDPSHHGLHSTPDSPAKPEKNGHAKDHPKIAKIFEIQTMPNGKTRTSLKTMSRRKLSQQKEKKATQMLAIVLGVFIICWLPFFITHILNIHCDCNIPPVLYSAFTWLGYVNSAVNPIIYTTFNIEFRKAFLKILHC
Method: To determine for agonist or antagonist activity of compounds of the invention in functional assays, human recombinant dopamine D2S receptor stably expressed in Chinese hamster ovary (CHO) cells (Gilliland S L and Alper R H. Naunyn-Schmiedeberg's Archives of Pharmacology. 361: 498, 2000) was used. Compounds of invention were pre-incubated with the membranes (0.05 mg/ml) and 3 μM GDP in modified HEPES buffer (20 mM HEPES, pH 7.4, 100 mM NaCl, 10 mM MgCl2, 1 mM DTT, 1 mM EDTA) for 20 minutes and Scintillation Proximity Assay (SPA) beads were then added for another 60 minutes at 30° C. The reaction was initiated by 0.3 nM [^35S]GTPγS for an additional 30 minute incubation period. […] Compounds were screened at 3 μM or lower, using 0.4% DMSO as vehicle. Assay results are presented as the percent response of specific binding in Table 9.

C57BL/6 mice = assay: Recognition of a new location of the known object (spatial memory); format: in vivo
Description: The object recognition test is based on the fact that mice and rats spontaneously explore new object or location of a known object a lot longer than the know object or a known location of an object. This test was first used in rats (Ennaceur A., Delacour J., 1988). It was further shown by others that this type of memory testing is suitable for mice (Dodart J. et al. 1997, Messier C. 1997, Pittenger C. et al., 2002, Ryabinin A. et al., 2002, Sargolini F. et al., 2003). The method of recognition of an object is divided in two stages. The first one involves the recognition of a new location of a known object, which is used to assess spatial memory. The second one includes a test for recognition of a new in order to evaluate the non-spatial memory (Gaffan D., 1992, Kolb B. et al., 1994, Steckler T., 1998). Currently, both are widely used to determine the effectiveness of newly synthesized drugs on memory.
All experiments were carried out on 3-4 months old males (C57BL/6 line) 22-26 g weight with 10 animals in each group. All animals were kept in the animal facility (5 animals per cage) on the 12×12 hours light cycle (8 am-8 pm) with free access to food and water. […] Brown glass vials were used as test objects which are 2.7 cm in diameter (1.1 inch) and 5.5 cm high (2.2 inch). All vials were treated with 85% ethanol 2-3 minutes before each testing. Animals were placed in the center of the chamber.
Dimebon and compounds of the invention were dissolved in distilled water and administered orally at 0.05 mL per 10 g of animal mass 1 hour before the training exercise. All animals in the control group were treated with the equivalent dose of vehicle. The testing was performed 48 hours after the training exercise because animals forget the location of the object during the 48-hour resting time.
On the first day animals were brought in the testing room so that they could adapt to the testing environment for 20-30 min. Subsequently, each animal was placed in the empty testing chamber for 10 min, which was wiped with alcohol beforehand. After that animals were transferred back into the […] and returned to the animal facility.
The next day after habituation, the animals were brought back into the testing room where they were weighed and injected with the testing compound. An hour after injection, each animal was placed into the testing camber which had two identical objects that were positioned 14.5 cm (5.7 inches) from the corners on the diagonal. The training exercise lasted for 15 min for each animal. Subsequently, each animal was placed back into the cage and returned into the animal house.
The testing procedure was performed 48 hours after the training exercise. During the procedure two objects were used as in the training exercise. […] The amount of time that each animal spent on exploration each object was determined with 0.1 sec accuracy using two electronic stopwatches for total of 10 min. […] The survey of the object was counted as positive if the nose of an animal was pointed within 2 cm or if the animal was touching the objected directly with the nose.
Due to fair differences in the amount of time that each animal surveyed the object, the percentage of the survey time for each animal was determined using this formula: tNL/(tFL+tNL)×100 (where t is time, NL—new location(object), and FL—familiar location(object)). […] Subsequently, the statistical significance was analyzed using a Student's t-test criteria.

Structure (SMILES)	Antagonist Activity As Measured by % Inhibition D2L ([1]; 0.03 uM) [%]	inhibition at 0.03 µM ([1]; 0.03 uM) [%]	Antagonist Activity As Measured by % Inhibition D2L ([1]; 0.1 uM) [%]	inhibition at 0.1 µM ([1]; 0.1 uM) [%]	Antagonist Activity As Measured by % Inhibition D2L ([1]; 0.3 uM) [%]	inhibition at 0.3 µM ([1]; 0.3 uM) [%]	inhibition at 1 µM [1] [%]	inhibition at 3 µM [1] [%]	Antagonist Activity As Measured by % Inhibition D2S ([2]; 0.03 uM) [%]	inhibition at 0.03 µM ([2]; 0.03 uM) [%]	inhibition at 0.1 µM ([2]; 0.1 uM) [%]	Antagonist Activity As Measured by % Inhibition D2S ([2]; 0.3 uM) [%]	inhibition at 0.3 µM ([2]; 0.3 uM) [%]	inhibition at 1 µM [2] [%]	inhibition at 3 µM [2] [%]	Antagonist Activity As Measured by % Inhibition D2S ([2]; 0.1 uM) [%]	effect on memory in the recognition test of a known object in a new location (C57BL/6 mice; 0.05 mg/kg, 0.5 mg/kg, and 1 mg/kg)	time exploring the object in a new location, % of the total time (C57BL/6 mice; 0.1 mg/kg) [%]	time exploring the object in the known position, % of the total time (C57BL/6 mice; 0.1 mg/kg) [%]
CN1CCc2c(c3cc(Cl)ccc3n2CCc2ccccc2)C1 [Compound 36, 8-chloro-2,3,4,5-tetrahydro-2-methyl-5-phenethyl-1H-pyrido[4,3-b]indole]	43	48	57	73	88	83	85	104	85	76	97	104	98	102	107	–	–	–	–
COc1ccc(CCn2c3c(c4cc(C)ccc42)CN(C)CC3)cc1 [Compound 247]	52	48	–	66	83	81	89	91	68	67	97	93	81	110	108	89	–	–	–
CN1CCc2c(c3ccccc3n2CCc2noc(-c3ccccc3)n2)C1 [Compound C4-1]	–	–	–	–	–	–	–	–	–	–	–	–	–	–	–	–	not significantly different from the control group	61.3±6.9	38.7±6.9
